In US20240246918A1, “COMPOUNDS AND COMPOSITIONS AS EIF4E INHIBITORS AND THE USES THEREOF” (Ribometrix, Inc., priority 2022, published 2024):

Experiments:
[1] = system: COLO 205 colorectal tumor cells; test: Tumor cell viability inhibition assay (CellTiter-Glo 2.0, 72 hours); format: cell-based; details: Homo sapiens, COLO 205, 72 h, COLO 205 cell viability
Procedure, shortened: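 IC50 derived by 4-parameter fitting after normalizing luminescence to DMSO and max-inhibition wells. Compounds tested as 11 concentrations in 4-fold steps on COLO 205 cells seeded at 1500 per well in RPMI-1640/10% FBS; ATP content measured with CellTiter-Glo 2.0 after 72 h.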

human eIF4E protein = target: T1, human eIF4E protein (Homo sapiens, UniProt P06730); test: Biochemical competitive binding assay (TR-FRET competition, EDA-m7GDP-ATTO-647N probe); details: read-out: hEIF4E TR-FRET IC50
T1 construct: purchased Novus NBP-45314
Procedure, shortened: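 IC50 values come from 4-parameter fits of the normalized 665/620 nm TR-FRET ratio. Compound was first incubated 15 min with 4 nM recombinant His-eIF4E bound to 2.5 nM Eu-anti-His antibody, then 15 min with 5 nM m7GDP-ATTO-647N tracer, in pH 7.5 HEPES buffer with 100 mM KCl, Tween-20 and BSA.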

[2] = system: cap-dependent translation in Flp-In-293 reporter cells; test: Cellular cap-dependent translation inhibition assay (dual luciferase assay, DLA; Fluc/Rluc ratio, 24 hours); format: cell-based; details: Homo sapiens, Flp-In-293, 24 h, dual luciferase assay, Flp-In-293 reporter cells, 24 hours, Fluc/Rluc ratio; read-out: DLA 205 IC50

T1 sequence (P06730 whole entry): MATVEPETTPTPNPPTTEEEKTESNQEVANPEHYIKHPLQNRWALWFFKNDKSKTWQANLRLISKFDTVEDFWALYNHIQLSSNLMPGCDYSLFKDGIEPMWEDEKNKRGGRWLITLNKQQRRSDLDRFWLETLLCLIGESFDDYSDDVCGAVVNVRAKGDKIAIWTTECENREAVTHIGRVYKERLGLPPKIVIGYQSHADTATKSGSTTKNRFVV

Row | Structure (SMILES) | IC50 [1] | IC50 (human eIF4E protein) | IC50 [2]
1 | Cc1cc(-c2cc(Cl)ccc2OCCn2c(C)nc3c(c2=O)CC(N(C)C2(C(F)(F)F)CC2)CC3)c2scc(C(=O)O)c2n1 (stereo not drawn) [Compound 265] | > 20 µM | 0.1 to 0.5 µM | 1 to 5 µM
2 | Cc1cc(-c2cc(Cl)ccc2OCCn2c(C)nc3c(c2=O)CC2(CC3)CCN(C3CC3)CC2)c2scc(C(=O)O)c2n1 [Compound 267, 7-(5-chloro-2-(2-(1-cyclopropyl-2′-methyl-4′-oxo-7′,8′-dihydro-4′H-spiro[piperidine-4,6′-quinazolin]-3′(5′H)-yl)ethoxy)phenyl)-5-methylthieno[3,2-b]pyridine-3-carboxylic acid] | 5 to 20 µM | < 0.1 µM | < 1 µM
3 | Cc1cc(-c2cc(Cl)ccc2OCCn2c(C)nc3c(c2=O)CC(N(C)C2(c4ccc(F)cc4)CC2)CC3)c2scc(C(=O)NS(C)(=O)=O)c2n1 (stereo not drawn) [Compound 274] | 5 to 20 µM | 0.1 to 0.5 µM | 1 to 5 µM
4 | Cc1nc2c(c(=O)n1CC#Cc1ccc(Cl)cc1-c1ccnc3c(C(=O)O)csc13)CC(N(C)C1CCN(CC(F)(F)F)CC1)CC2 (stereo not drawn) [Compound 275] | < 5 µM | < 0.1 µM | < 1 µM
5 | Cc1cc(-c2cc(Cl)ccc2OCCn2c(C)nc3c(c2=O)CC(N(C)C2CCN(CC(F)(F)F)CC2)CC3)c2scc(C(=O)O)c2n1 (stereo not drawn) [Compound 276] | < 5 µM | < 0.1 µM | < 1 µM
6 | Cc1cc(-c2cc(Cl)ccc2OCCn2c(C)nc3c(c2=O)CC(N2CCN(CC(F)(F)F)CC2)CC3)c2scc(C(=O)O)c2n1 (stereo not drawn) [Compound 278] | < 5 µM | < 0.1 µM | < 1 µM
7 | Cc1cc(-c2cc(Cl)ccc2OCCn2c(C)nc3c(c2=O)CC(N(C)C24CC(C)(C2)C4(F)F)CC3)c2scc(C(=O)NS(C)(=O)=O)c2n1 (stereo not drawn) [Compound 288] | 5 to 20 µM | < 0.1 µM | 1 to 5 µM
8 | Cc1cc(-c2cc(Cl)ccc2OCCn2c(C)nc3c(c2=O)CC(N(C2CCC2)C2CC2)CC3)c2scc(C(=O)NS(C)(=O)=O)c2n1 (stereo not drawn) [Compound 317] | < 5 µM | < 0.1 µM | < 1 µM
9 | COC(=O)c1csc2c(-c3cc(Cl)ccc3OCCn3c(C)nc4c(c3=O)CC(N(C3CC3)C3CC3)CC4)cc(C)nc12 (stereo not drawn) [Compound 339] | 5 to 20 µM | 0.5 to 5 µM | > 5 µM
10 | Cc1cc(-c2cc(Cl)ccc2OCCn2c(C)nc3c(c2=O)CC(N(C2CC2)C2CC2)CC3)c2scc(C(=O)O)c2n1 (stereo not drawn) [Compound 352] | < 5 µM | < 0.1 µM | < 1 µM
11 | COC(=O)c1csc2c(-c3cc(Cl)ccc3OCCn3c(C)nc4c(c3=O)CC(N(CC(F)(F)F)C3CC3)CC4)cc(C)nc12 (stereo not drawn) [Compound 353] | > 20 µM | 0.5 to 5 µM | > 5 µM
12 | Cc1cc(-c2cc(Cl)ccc2OCCn2c(C)nc3c(c2=O)CC(N2CC(F)C2)CC3)c2scc(C(=O)O)c2n1 (stereo not drawn) [Compound 356] | < 5 µM | < 0.1 µM | < 1 µM
13 | COC(=O)c1csc2c(-c3cc(Cl)ccc3OCCn3c(C)nc4c(c3=O)CC(N(C)C3CC3)CC4)cc(C)nc12 (stereo not drawn) [Compound 358] | 5 to 20 µM | 0.5 to 5 µM | 1 to 5 µM

The next lines start with results.

Row | IC50 [1] | IC50 (human eIF4E protein) | Structure (SMILES) | IC50 [2]
14 | > 20 µM | 0.5 to 5 µM | Cc1cc(-c2cc(Cl)ccc2OCCn2c(C)nc3c(c2=O)CC2(CC3)CCN(C)CC2)c2scc(C(=O)O)c2n1 [Compound 268, 7-(5-chloro-2-(2-(1,2′-dimethyl-4′-oxo-7′,8′-dihydro-4′H-spiro[piperidine-4,6′-quinazolin]-3′(5′H)-yl)ethoxy)phenyl)-5-methylthieno[3,2-b]pyridine-3-carboxylic acid] | > 5 µM
15 | > 20 µM | < 0.1 µM | Cc1cc(-c2cc(Cl)ccc2OCCn2c(C)cc3c(c2=O)CC2(CC3)CN(C)C2)c2scc(C(=O)O)c2n1 [Compound 269] | > 5 µM
16 | 5 to 20 µM | < 0.1 µM | Cc1cc(-c2cc(Cl)ccc2OCCn2c(C)nc3c(c2=O)CC2(CC3)CN(C3CC3)C2)c2scc(C(=O)O)c2n1 [Compound 270, 7-(5-chloro-2-(2-(1-cyclopropyl-2′-methyl-4′-oxo-7′,8′-dihydro-4′H-spiro[azetidine-3,6′-quinazolin]-3′(5′H)-yl)ethoxy)phenyl)-5-methylthieno[3,2-b]pyridine-3-carboxylic acid] | < 1 µM
17 | < 5 µM | < 0.1 µM | Cc1nc2c(c(=O)n1CC#Cc1ccc(Cl)cc1-c1ccnc3c(C(=O)NS(C)(=O)=O)csc13)CC(N(C)C1CC1)CC2 (stereo not drawn) [Compound 271] | < 1 µM
18 | > 20 µM | 0.5 to 5 µM | Cc1cc(-c2cc(Cl)ccc2OCCn2c(C)nc3c(c2=O)CC(N(C)C2CC2)CC3)c2c(n1)c(C(=O)NS(C)(=O)=O)cn2C (stereo not drawn) [Compound 272] | > 5 µM
19 | > 20 µM | 0.5 to 5 µM | Cc1cc(-c2cc(Cl)ccc2OCCn2c(C)nc3c(c2=O)CC(N(C)C2CC2)CC3)c2c(n1)c(C(=O)O)cn2C (stereo not drawn) [Compound 277] | > 5 µM
20 | < 5 µM | < 0.1 µM | Cc1cc(-c2cc(Cl)ccc2OCCn2c(C)nc3c(c2=O)CC(N2CC(F)(F)C4(CC4)C2)CC3)c2scc(C(=O)O)c2n1 (stereo not drawn) [Compound 279] | < 1 µM
21 | < 5 µM | < 0.1 µM | Cc1nc2c(c(=O)n1CC#Cc1ccc(Cl)cc1-c1ccnc3c(C(=O)O)csc13)CC(N(C)C1CC1)CC2 (stereo not drawn) [Compound 290] | < 1 µM
22 | 5 to 20 µM | < 0.1 µM | Cc1cc(-c2cc(Cl)ccc2OCCn2c(C)nc3c(c2=O)CC(N(C)C24CC(C)(C2)C4(F)F)CC3)c2scc(C(=O)O)c2n1 (stereo not drawn) [Compound 318] | 1 to 5 µM
23 | < 5 µM | < 0.1 µM | Cc1nc2c(c(=O)n1CC#Cc1ccc(Cl)cc1-c1ccnc3c(C(=O)NS(C)(=O)=O)csc13)CC(N1CC(F)C1)CC2 (stereo not drawn) [Compound 325] | < 1 µM
24 | > 20 µM | 0.5 to 5 µM | Cc1nc2c(c(=O)n1CC#Cc1ccc(Cl)cc1-c1ccnc3c(C(=O)O)csc13)CC(N(C)C)CC2 (stereo not drawn) [Compound 350] | > 5 µM
25 | < 5 µM | < 0.1 µM | Cc1nc2c(c(=O)n1CC#Cc1ccc(Cl)cc1-c1ccnc3c(C(=O)O)csc13)CC(N(C)Cc1ccncc1)CC2 (stereo not drawn) [Compound 351] | < 1 µM
26 | 5 to 20 µM | < 0.1 µM | Cc1nc2c(c(=O)n1CC#Cc1ccc(Cl)cc1-c1ccnc3c(C(=O)O)csc13)CC(N1CC(F)C1)CC2 (stereo not drawn) [Compound 355] | < 1 µM
27 | < 5 µM | < 0.1 µM | Cc1nc2c(c(=O)n1CC#Cc1ccc(Cl)cc1-c1ccnc3c(C(=O)O)csc13)CC(N1CCCCC1)CC2 (stereo not drawn) [Compound 357] | < 1 µM
